Measured values as given in PubChem BioAssay (NCI).
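Test compounds were applied to cells in 96-well plates for 48 hours at 5 doses. The concentration for 50% growth inhibition is given as GI50. TGI: total growth inhibition.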

Columns and labels:
Assay in all cases: NCI-60 cell line screen, 48 h
A549 NSCLC = test system: A549 NSCLC
COLO 205 colon = test system: COLO 205 colon
HCT-15 colon = test system: HCT-15 colon
HOP-92 NSCLC = test system: HOP-92 NSCLC
M14 melanoma = test system: M14 melanoma
NCI/ADR-RES ovarian = test system: NCI/ADR-RES ovarian
SF-268 CNS = test system: SF-268 CNS
SF-295 CNS = test system: SF-295 CNS
SK-MEL-28 melanoma = test system: SK-MEL-28 melanoma
SW-620 colon = test system: SW-620 colon

| SMILES | GI50 (A549 NSCLC) [µM] | TGI (A549 NSCLC) [µM] | GI50 (COLO 205 colon) [µM] | TGI (COLO 205 colon) [µM] | GI50 (HCT-15 colon) [µM] | TGI (HCT-15 colon) [µM] | GI50 (HOP-92 NSCLC) [µM] | TGI (HOP-92 NSCLC) [µM] | GI50 (M14 melanoma) [µM] | TGI (M14 melanoma) [µM] | GI50 (NCI/ADR-RES ovarian) [µM] | TGI (NCI/ADR-RES ovarian) [µM] | GI50 (SF-268 CNS) [µM] | TGI (SF-268 CNS) [µM] | GI50 (SF-295 CNS) [µM] | TGI (SF-295 CNS) [µM] | GI50 (SK-MEL-28 melanoma) [µM] | TGI (SK-MEL-28 melanoma) [µM] | GI50 (SW-620 colon) [µM] | TGI (SW-620 colon) [µM] |
| --- | --- | --- | --- | --- | --- | --- | --- | --- | --- | --- | --- | --- | --- | --- | --- | --- | --- | --- | --- | --- |
| Cc1c(-c2c(-c3ccc(F)o3)sc3ncnc(O[C@H](Cc4ccccc4OCc4ccnn4CC(F)(F)F)C(=O)O)c23)ccc(OCCN2CCN(C)CC2)c1Cl | 13.4 | 26.9 | 4.29 | 9.26 | 6.49 | 20.1 | 4.57 | 9.7 | 1.32 | 5.83 | 15.5 | 33.4 | 4.46 | 11.4 | 3.55 | 7.55 | 3.84 | 7.82 | 5.88 | 17.2 |
| O=C(CN1CCN(CCCOc2c(-c3ccccc3)oc3ccccc3c2=O)CC1)Nc1ccc(Cl)cc1C(=O)c1ccccc1Cl | 6.37 | > 100 | 13.4 | 30.2 | 5.48 | 53.8 | 1.05 | 6.6 | 2.01 | 4.51 | 5.74 | 26.4 | 23.2 | > 100 | 4.79 | 18.2 | 3.66 | 15.2 | 0.336 | > 100 |
| COc1cc2cc(Oc3ccc(NC(=O)Nc4cccc(C(F)(F)F)c4)cc3)c(C)nc2cc1OC | 1.47 | 6.49 | 1.12 | 2.4 | 1.85 | 22.2 | 1.26 | 3.96 | 1.67 | 7.67 | 1.71 | 7.19 | 2.57 | 15.5 | 1.13 | 3.59 | 1.97 | 8.37 | 2.28 | 11.1 |
| Cn1c(/C=C(\C#N)c2ccccc2)nc2c(N3CCOCC3)nc(Cl)nc21 | 1.53 | 4.03 | 1.34 | 2.93 | 0.233 | 0.641 | 0.405 | 2.06 | 0.844 | 2.26 | 1.98 | 7.23 | 1.55 | 3.15 | 1.98 | 4.32 | 1.57 | 2.96 | 0.413 | 1.51 |
| Nc1c(Br)cc(Br)c2c1[nH]c(=O)c1ccccc12 | 6.7 | > 100 | 22.1 | > 100 | 60.1 | > 100 | 1.96 | 8.57 | 9.89 | > 100 | 6.68 | 66.7 | 9.72 | > 69.3 | 3.1 | 10.2 | > 45.9 | > 100 | 23.1 | > 100 |
| CCCc1cc2c(=O)c(C(=O)OC)c[nH]c2cc1N(CC)CC | 38.3 | > 100 | 46.5 | > 100 | 76.7 | > 100 | 19.2 | 52.7 | 57 | > 100 | 24.2 | 72.8 | 28.6 | 87.6 | 8.16 | 24.8 | 81.7 | > 100 | 45.6 | > 100 |
| O=C1NC(O)C(c2c[nH]c3ccccc23)=C1c1c[nH]c2ccccc12 (stereo not given) | > 25 | > 25 | > 25 | > 25 | 18.4 | > 25 | 4.42 | > 25 | > 25 | > 25 | > 25 | > 25 | > 25 | > 25 | > 25 | > 25 | > 25 | > 25 | > 25 | > 25 |
| CC(C)[C@H](CO)Nc1nc(Nc2ccc(C(=O)NCCNS(=O)(=O)c3cccc4c(N(C)C)cccc34)c(Cl)c2)c2ncn(C(C)C)c2n1 | 2.91 | > 77.7 | 1.76 | 3.47 | 4.29 | > 100 | 2 | > 100 | 3.24 | > 100 | > 100 | > 100 | 2.47 | 34.2 | 1.75 | > 100 | 2.9 | > 100 | 2.56 | > 100 |
| O=C(Nc1cc(Cl)cc(Cl)c1)c1ccc(NC2=C(Cl)C(=O)N(Cc3ccc(Cl)cc3Cl)C2=O)cc1 | > 100 | > 100 | 12.1 | 35.4 | 7.06 | 95.3 | 9.32 | 27.5 | 10.1 | 61.7 | 29.7 | > 100 | 8.87 | 39.4 | 43.2 | > 100 | 21.4 | 75.8 | 1.38 | 13.1 |
| CCOC(=O)N1CCc2cc(OC)c(OC)c3c2c1cc1cc(OC)c(OC)cc13 |  | > 100 |  | 9.06 |  | 37.9 |  | 44.8 |  | 63.6 |  | 5.37 |  | > 100 |  | 35.2 |  | > 100 |  | 81.1 |
